In patent US10662225B2, “Backbone cyclized inhibitory peptides of myeloid differentiation factor 88 (MyD88)” (Yissum Research Development Company of the Hebrew …, priority 2016, dated 2020):
Numbered stars: 1 amine (or outer) side, 2 acyl side, 3 side chain; on linkers, the order of the positions; unused ones are H or OH. Bridge positions count the residues as written; N and C are the ends. Square brackets hold non-standard residues; d marks the D form. Ends that are not written are not given here. CO = O=C([*:1])[*:2]

Assays:
[1] = tested on: MyD88-dependent signaling; test: TNFα production by THP-1 derived macrophages stimulated with PAM3csk; assay type: cell-based, human; details: THP-1 macrophages, PAM3csk overnight
Procedure: FIG. 5. Human monocytic THP-1 cells were differentiated to macrophages and were stimulated with PAM3csk overnight in the absence or presence of the cyclic 4-carbon bridge peptide or 6-carbon bridge peptide. TNFα levels in the supernatants were determined by ELISA.
Both cyclic peptides were synthesized with the addition of a tryptophan group to the N-terminus to enable accurate quantification of the molecules.

[2] = tested on: MyD88-dependent signaling; test: Library screen: TNFα production by U937 macrophage cells stimulated with PAM3Csk; assay type: cell-based, human; details: PAM3Csk overnight, peptide concentration estimated 2-4 μM
Procedure: FIG. 4. Screening results of the peptide library of 16 compounds. Human macrophage U937 cells were stimulated with PAM3csk overnight in the absence or presence of each of the cyclic peptides. Human TNFα levels in the supernatants were determined by ELISA. […].
The backbone cyclic library of 16 compounds synthesized in Example 3 was screened for inhibition of MyD88-dependent signaling through innate immune receptors employing the human macrophage cell line U937. […] The concentration of the cyclic peptides in the library was estimated to be 2-4 μM.

[3] = biological target: T1, MyD88 TIR domain (Homo sapiens, UniProt Q99836); test: Competition assay: binding of biotinylated linear BB loop peptide to MyD88 TIR domain; details: different concentrations
T1 construct: made in house
Procedure: FIG. 9. 4×4MyDI binds to the BB loop region of the MyD88 TIR domain. A 96 well plate was coated with recombinant MyD88 (8 μg/ml) in coating buffer vs. buffer alone, and wells were blocked with 1% BSA. Biotinylated linear peptide was added to all wells (125 μg/ml) followed by streptavidin-HRP and substrate. The signal of linear peptide bound to its target was inhibited by incubation with the 4×4MyDI (*P<0.05) but not by incubation with the scrambled version of the linear peptide (SEQ ID NO: 5).
The ability of the 4×4MyDI compound to bind to the target region (the BB loop) of the MyD88 TIR domain, was evaluated using a newly-designed assay. For this goal a competition assay was established that tests the ability of the 4×4MyDI compound to prevent the binding of the biotinylated linear BB loop peptide to the MyD88 TIR domain. The MyD88 TIR domain was produced as a recombinant protein fused to the SUMO3 protein (Accession # NP_008867), purified, and attached to a 96 well plate. Binding of biotinylated RDVLPGT (SEQ. ID NO: 1) peptide was detected using streptavidin conjugated to horse radish peroxidase (HRP) followed by the addition of HRP substrate.

[4] = biological target: T2, MyD88 (Mus musculus, UniProt P22366); test: IL-18-induced IFN-γ secretion by MOG35-55 specific T cells (ELISA); assay type: cell-based
T2 construct: endogenous in cells; host or cells: MOG35-55 specific T cells
Procedure: FIG. 1. MyD88 inhibitor linear peptide down-regulates IL-18-induced T-cell interferon gamma (IFN-γ) production in vitro. A: MOG35-55 specific T cells were incubated with MIP (SEQ ID NO: 1), or the scrambled version of MIP (MIPscr, PTDLVRG, SEQ ID NO: 5), or without peptide (control) for 2 h. T-cells were then plated with (right side of graph) or without (left side of graph) 30 ng/ml IL-18 for 22 h and IFN-γ production was measured by ELISA. Asterisks denote P<0.0001 compared to no inhibitor peptide or MIPscr. B: MOG35-55 specific T cells were incubated with MIP (SEQ ID NO: 1), or the scrambled version of MIP (MIPscr, SEQ ID NO: 5), or without peptide (control) for 2 h. T-cells were then plated with (right side of graph) or without (left side of graph) 30 ng/ml IL-18 for 22 h in the presence of irradiated splenocytes and MOG35-55 peptide ([…], SEQ ID NO: 4) (5 μg/ml). IFN-γ production was measured by ELISA. Asterisks denote P<0.0001 compared to no inhibitor peptide.
To investigate the ability of the MyD88 inhibitor linear peptide (termed either MIP or MyDI) to inhibit MyD88 activity in T-cells in vitro, the secretion of IFN-γ by MOG-specific T cells in response to IL-18 stimulation was tested. The signaling of IL-18 trough the IL-18 receptor is MyD88 dependent. […] Cells were then stimulated with IL-18, and IFN-γ levels in the supernatants were analyzed after 24 h. […]

[5] = tested on: NFκB p65 nuclear translocation; test: NFκB p65 nuclear translocation in HeLa cells stimulated with TNFα or IL-1β; assay type: cell-based; details: HeLa cells
Procedure: FIG. 6. HeLa assay showing specificity of MyD88 inhibition. HeLa cells were stimulated with recombinant TNFα or IL-1β and NFkB localization was determined with anti-p65 conjugated to rhodamine. The percent of cells with nuclear localization was determined and is shown in the bar graphs on the right. 6A: Top row, HeLa cells transduced with control shRNA. Second row, shRNA knock-down of MyD88. 6B: Top row, HeLa cells treated with MyD88 inhibitor linear peptide. Bottom row, HeLa cells treated with scrambled control version of the MyD88 inhibitor linear peptide (SEQ ID NO: 5).
FIG. 7. HeLa assay showing specificity of MyD88 inhibition by 4×4MyDI. HeLa cells were stimulated with recombinant TNFα or IL-1b and NFkB localization was determined with anti-p65 conjugated to rhodamine. The percent of cells with nuclear localization was determined, and is shown in the bar graphs on the right. Top row, HeLa cells with no pre-treatment. Second row, HeLa cells pre-treated for 30 min with the backbone cyclic 4×4MyDI compound.
Lead compounds were further tested in vitro to confirm the specificity of the inhibition. A fluorescence-based in vitro activity assay that determines the degree of activation of the transcription factor NFκB was established. In this assay, cells are treated with either TNFα or IL-1b, both inflammatory cytokines that activate NFκB. Upon activation, the p65 unit of the NFκB transcription factor re-locates from the cytoplasm to the nucleus. Using fluorescently-tagged antibodies to p65, the cytoplasmic vs. nuclear localization of the factor is determined. Importantly, since the signaling of IL-1b, but not TNFα, is dependent on MyD88, this assay can establish the specificity of the inhibition achieved using the lead compounds.
Cells were activated with either IL-1β (the signaling of the IL-1 receptor is dependent on MyD88), or with TNFα (signaling of its receptor is independent of MyD88). The activation was measured by the translocation of NFκB from the cytoplasm to the nucleus. As a positive control, a stable MyD88 knock-down cell line was established using lentiviral encoded shRNA.
Using the same system, when cells were treated with the backbone cyclic peptide 4×4MyDI, activation by IL-1β was blocked, however when treated with TNFα the activation was not inhibited.

[6] = Metabolic stability in plasma (quantitative HPLC); assay type: in vitro ADME, human; details: plasma; 4×4MyDI: first two hours
Procedure: FIGS. 17A and 17B. 4×4MyDI is metabolically stable in comparison to the linear MyDI peptide. 4×4MyDI vs. linear MyDI heptapeptide were incubated independently in either human plasma […] or human plasma supplemented with Brush Border Membrane Vesicles (BBMV, 18B). At various time points the solution was sampled and the amount of remaining compound was determined by quantitative HPLC.
Peptide backbone cyclization confers metabolic stability on peptides that are inherently susceptible to degradation by proteases. […] The stability of the compounds was then tested in plasma enriched with Brush Border Membrane Vesicles (BBMV). This system models the degradative conditions of the intestine.

T2 sequence (P22366 whole entry): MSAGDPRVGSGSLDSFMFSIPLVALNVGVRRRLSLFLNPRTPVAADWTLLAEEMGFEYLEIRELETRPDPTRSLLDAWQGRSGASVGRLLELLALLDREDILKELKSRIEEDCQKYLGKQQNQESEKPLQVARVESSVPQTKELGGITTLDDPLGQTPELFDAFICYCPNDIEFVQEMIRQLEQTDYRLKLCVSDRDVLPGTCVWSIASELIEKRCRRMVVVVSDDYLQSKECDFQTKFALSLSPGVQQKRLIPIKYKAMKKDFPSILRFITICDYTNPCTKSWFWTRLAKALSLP
T1 sequence (Q99836 151-296): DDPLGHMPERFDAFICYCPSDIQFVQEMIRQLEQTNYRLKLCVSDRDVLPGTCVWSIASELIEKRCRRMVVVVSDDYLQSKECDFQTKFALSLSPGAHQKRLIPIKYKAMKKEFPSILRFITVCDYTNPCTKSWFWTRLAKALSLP

Q: For “6×6 bridge peptide: backbone cyclic peptide of Formula IV with m=6, n=6 (W[Gly(Nα-(CH2)6-NH2)]RDVL[Gly(Nα-(CH2)6-NH2)]GT; bridge 2-7 via CO)”, which “inhibition of TNFα production” value [1] is on record?
A: Its value is “inhibited the human macrophage production of TNFα”.

Q: What about the “MyD88 inhibitory activity (reduction in TNFα production)” value [2] of the same substance?
A: The value was “greatest MyD88 inhibitory activity”.

Q: For PTDLVRG [MIPscr, reference compound], which “inhibition of binding of the biotinylated peptide to the MyD88 TIR domain” value [3] is on record?
A: Its value is “did not inhibit”.

Q: What about the “IL-18-stimulated IFNγ level” value ([4]; 20 mM peptide (so in the source), IL-18 stimulation, supernatants after 24 h) of the same substance?
A: Its value is “had no effect”.

Q: And the “Percent p65 nuclear translocation, TNFα” value ([5]; TNFα (MyD88 independent))?
A: The value was 90%.

Q: And the “Percent p65 nuclear translocation, No stimulation” value ([5]; no stimulation)?
A: The value was 0%.

Q: Which “reduction of the level of IFN-γ” value ([4]; T cells with APC presenting MOG35-55 peptide plus IL-18) does the source give for “RDVLPGT [MIP, Arg-Asp-Val-Leu-Pro-Gly-Thr, reference compound]” here?
A: Its value is 30-35%.

Q: And the stability in plasma [6]?
A: The stability in plasma was “disappears rapidly”.
